Columns and labels:
Type in all cases: biochemical
MMP-9 (gelatinase B) = biological target: T1, MMP-9 (gelatinase B) (Homo sapiens, UniProt P14780); assay: MMP-9 (gelatinase B) inhibitory activities, fluorogenic substrate enzyme assay; conditions: for IC50: 42° C., 3 h, substrate 10 μM
T1 construct: MMP-9, derived human fibrosarcome (Yagai Co. Ltd.), were used as enzyme respectively; purchased Yagai Co. Ltd; host or cells: human fibrosarcoma
Experimental: (§1) Examination 2: MMP-2 (gelatinase A) and MMP-9 (gelatinase B) inhibitory activities.
(§2) Pro MMP-2 was obtained from culture medium separated from human pro-MMP-2 cDNA tranfected COS-1 cells. Pro MMP-2 activated by 1 mM (4-aminophenyl) mercury acetic acid and MMP-9, derived human fibrosarcome (Yagai Co. Ltd.), were used as enzyme respectively. Inhibition of both enzyme activities were estimated by enzyme assay using MOCAc-Pro-Leu-Gly-Leu-A2pr(Dnp)-Ala-Arg-NH2 (Peptide Research Center, 3163-v) as substrate. Thus, MMP-2 or MMP-9 (0.01 U/ml), test compound (several concentrations), and the substrate (10 μM) were incubated in 50 mM Tris - HCl buffer (pH 7.4) containing 0.2M NaCl, 10 mM CaCl2, 0.02% NaN3, and 0.05% Brij 35 at 42° C. for 2 h (MMP-2), 3 h (MMP-9) respectively. Inhibition of degradation of substrate in the presence of compound was determined by comparison with the degradation of substrate in the absence of compound, and concentration of 50% inhibition (IC50 value) was calculated.

Δ MT1-MMP (Δ MMP-14) = biological target: T2, Δ MT1-MMP (Δ MMP-14) (Homo sapiens, UniProt P50281); assay: Δ MT1-MMP (Δ MMP-14) inhibitory activities, fluorogenic substrate enzyme assay; conditions: 37° C., 30 min, substrate 10 μM; read-out: ΔMMP-14 IC50
T2 construct: ProMT1-MMP cDNA encoded extracellular domain of pro Δ MT1-MMP was tranfected E. coli BL21DE3; made in house; host or cells: E. coli BL21DE3 (inclusion bodies, 8M urea, ion exchange)
Description: Examination 3: Δ MT1-MMP (Δ MMP-14) inhibitory activities.
ProMT1-MMP cDNA encoded extracellular domain of pro Δ MT1-MMP was tranfected E. coli BL21DE3, pro Δ MT1-MMP collected as inclusion body was solved using 8M urea, and it was pulified by ion exchenge column chlomatography. Inhibition of enzyme activities were estimated by enzyme assay using activated Δ MT1-MMP, obtained from activation of pro Δ MT1-MMP by 10 μ/ml tripsine, and MOCAc-Pro-Leu-Gly-Leu-A2pr(Dnp)-Ala-Arg-NH2 (Peptide Research Center, 3163-v) as substrate. Thus, Δ MT1-MMP, test compound (several concentrations), and the substrate (10 μM) were incubated in 50 mM Tris - HCl buffer (pH 7.4) containing 0.2M NaCl, 10 mM CaCl2, 0.02% NaN3, 0.05% Brij 35, and 10 μM leuipeputine at 37° C. for 30 min. The reaction was stopped by adding of 4 volumes of sodium acetate buffer (pH 4.0), and the degradation of substrate was calculated by measurement with a fluorescence intensity (λ ex 328 nm, λ em 393 nm). Inhibition of degradation of substrate in the presence of compound was determined by comparison with the degradation of substrate in the absence of compound, and concentration of 50% inhibition (IC50 value) was calculated.

MMP-2 (gelatinase A) = biological target: T3, MMP-2 (gelatinase A) (Homo sapiens, UniProt P08253); assay: MMP-2 (gelatinase A) inhibitory activities, fluorogenic substrate enzyme assay; conditions: 42° C., 2 h, substrate 10 μM
T3 construct: made in house; host or cells: COS-1 cells (secreted into culture medium)
T3 sequence (P08253 110-660): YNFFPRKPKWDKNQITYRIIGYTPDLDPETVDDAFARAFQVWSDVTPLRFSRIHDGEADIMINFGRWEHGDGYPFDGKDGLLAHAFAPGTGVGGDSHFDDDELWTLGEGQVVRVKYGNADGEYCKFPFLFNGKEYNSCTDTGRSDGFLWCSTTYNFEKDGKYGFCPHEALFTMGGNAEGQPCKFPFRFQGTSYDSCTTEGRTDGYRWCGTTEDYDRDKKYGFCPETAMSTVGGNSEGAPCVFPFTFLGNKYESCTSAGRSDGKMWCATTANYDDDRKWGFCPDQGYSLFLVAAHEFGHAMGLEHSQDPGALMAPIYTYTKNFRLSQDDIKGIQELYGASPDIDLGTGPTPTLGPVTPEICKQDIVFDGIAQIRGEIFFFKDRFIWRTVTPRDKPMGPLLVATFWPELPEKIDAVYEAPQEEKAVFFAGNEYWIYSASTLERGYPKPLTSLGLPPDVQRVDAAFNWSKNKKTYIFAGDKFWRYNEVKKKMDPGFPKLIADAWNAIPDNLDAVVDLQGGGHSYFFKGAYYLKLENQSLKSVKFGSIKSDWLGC
Experimental: as §1, §2

[1] = biological target: T4, human fibroblasts derived MMP-1 (type I collagenase) (Homo sapiens, UniProt P03956); assay: MMP-1 (type I collagenase) inhibitory activities, fluorogenic substrate enzyme assay; conditions: for IC50: 37° C., 4 h, substrate 10 μM; for inhibition at 10 µM: at 10^−5M, NE means no effect, read-out: MMP-1 inhibition percent
T4 construct: human fibroblasts derived MMP-1 (Yagai Co. Ltd.) as enzyme; purchased Yagai Co. Ltd; host or cells: human fibroblasts
T4 sequence (P03956 100-469): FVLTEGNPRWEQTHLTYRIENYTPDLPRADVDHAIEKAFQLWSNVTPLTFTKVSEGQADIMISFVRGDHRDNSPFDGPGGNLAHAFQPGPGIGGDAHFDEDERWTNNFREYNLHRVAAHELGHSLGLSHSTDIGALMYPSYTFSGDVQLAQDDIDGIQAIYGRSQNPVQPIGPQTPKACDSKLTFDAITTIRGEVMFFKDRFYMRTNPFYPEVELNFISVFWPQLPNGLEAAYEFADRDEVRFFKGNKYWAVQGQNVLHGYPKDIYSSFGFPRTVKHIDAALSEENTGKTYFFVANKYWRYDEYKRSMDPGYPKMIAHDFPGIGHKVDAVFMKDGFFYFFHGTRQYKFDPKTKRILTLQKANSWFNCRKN
Experimental: Examination 1: MMP-1 (type I collagenase) inhibitory activities.
Inhibitory activities of MMP-1 (type I collagenase) activities were estimated by enzyme assay using human fibroblasts derived MMP-1 (Yagai Co. Ltd.) as enzyme, and MOCAc-Pro-Leu-Gly-Leu-A2pr(Dnp)-Ala-Arg-NH2 (Peptide Research Center, 3163-v) as substrate. Thus, MMP-1 (0.01 U/ml), test compound (10^−10˜10^−5 M), and the substrate (10 μM) were incubated in 50 mM Tris-HCl buffer (pH 7.4) containing 0.2M NaCl, 10 mM CaCl2, 0.02% NaN3, and 0.05% Brij 35 at 37° C. for 4 h. The reaction was stopped by adding of 4 volumes of sodium acetate buffer (pH 4.0), and the degradation of substrate was calculated by measurement with a fluorescence intensity (λ ex 328 nm, λ em 393 nm). Inhibition of degradation of substrate in the presence of compound was determined by comparison with the degradation percent of substrate in the absence of compound, and concentration of 50% inhibition (IC50 value) was calculated.

T1 sequence (P14780 94-707): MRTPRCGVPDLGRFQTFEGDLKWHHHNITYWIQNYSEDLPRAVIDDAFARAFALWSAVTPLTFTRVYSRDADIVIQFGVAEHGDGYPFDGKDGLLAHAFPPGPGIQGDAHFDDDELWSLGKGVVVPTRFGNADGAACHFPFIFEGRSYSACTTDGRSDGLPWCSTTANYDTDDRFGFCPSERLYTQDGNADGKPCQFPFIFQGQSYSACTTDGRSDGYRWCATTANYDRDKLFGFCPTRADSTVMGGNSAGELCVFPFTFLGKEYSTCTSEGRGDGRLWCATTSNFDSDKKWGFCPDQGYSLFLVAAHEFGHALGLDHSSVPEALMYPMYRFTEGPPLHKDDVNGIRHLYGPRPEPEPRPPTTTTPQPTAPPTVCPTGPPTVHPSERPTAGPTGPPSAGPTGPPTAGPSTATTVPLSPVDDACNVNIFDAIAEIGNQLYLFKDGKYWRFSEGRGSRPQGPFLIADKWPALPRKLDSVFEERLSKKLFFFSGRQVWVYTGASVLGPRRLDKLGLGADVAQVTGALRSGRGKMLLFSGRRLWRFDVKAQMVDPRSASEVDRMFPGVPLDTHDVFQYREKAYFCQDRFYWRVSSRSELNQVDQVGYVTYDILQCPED

Row | SMILES | IC50 (MMP-9 (gelatinase B)) | IC50 (Δ MT1-MMP (Δ MMP-14)) | IC50 (MMP-2 (gelatinase A)) | IC50 [1] | inhibition at 10 µM [1] | inhibition at 10 µM (MMP-9 (gelatinase B); at 10^−5M, read-out: MMP-9 inhibition percent)
1 | COc1ccc(CN[C@@H]2CCN(S(=O)(=O)c3ccc(-c4ccc(OC)cc4)cc3)[C@@H](C(=O)NO)C2)cc1 [Compound 62, (2R, 4R)-2-Hydroxyaminocarbonyl-4-(4-methoxybenzylamino)-1-[4-(4-methoxyphenyl)benzenesulfonyl]-piperidine] | 3.2 nM | 45 nM | 0.93 nM | 870 nM |  | 
2 | CC(C)CCC(=O)N[C@@H]1CCN(S(=O)(=O)c2ccc([N+](=O)[O-])cc2)[C@@H](C(=O)NO)C1 [Compound 77, (2R, 4R)-2-Hydroxyaminocarbonyl-4-(4-methylpentanoylamino)-1-(4-nitrobenzenesulfonyl)-piperidine] | 740 nM | 2300 nM | 480 nM |  | 32.2% | 
3 | COc1ccc(S(=O)(=O)N2CC[C@H](NC(=O)CCC(C)C)C[C@H]2C(=O)NO)cc1 [Compound 79, (2S, 4S)-2-Hydroxyaminocarbonyl-1-(4-methoxybenzenesulfonyl)-4-(4-methylpentanoylamino)-piperidine] |  | 5000 nM | 7600 nM |  | 0% | 23.3%
4 | CC(C)CCC(=O)N[C@@H]1CCN(S(=O)(=O)c2ccc(-c3ccc([N+](=O)[O-])cc3)cc2)[C@@H](C(=O)NO)C1 [Compound 67, (2R, 4R)-2-Hydroxyaminocarbonyl-4-(4-methylpentanoylamino)-1-[4-(4-nitrophenyl)benzenesulfonyl]-piperidine] | 36 nM | 1500 nM | 22 nM | 1200 nM |  | 
5 | COc1ccc(-c2ccc(S(=O)(=O)N3CC[C@@H](NC(=O)c4c[nH]c5ccccc45)C[C@@H]3C(=O)NO)cc2)cc1 [Compound 76, (2R, 4R)-2-Hydroxyaminocarbonyl-4-(3-indolecarbonylamino)-1-[4-(4-methoxyphenyl)benzenesulfonyl]-piperidine] | 21 nM | 96 nM | 12 nM |  | 12.9% | 
6 | COc1ccc(OCCCCC(=O)N[C@@H]2CCN(S(=O)(=O)c3ccc(OC)cc3)[C@@H](C(=O)NO)C2)cc1 [Compound 46, (2R, 4R)-2-Hydroxyaminocarbonyl-1-(4-methoxybenzenesulfonyl)-4-[5-(4-methoxyphenoxy)pentanoylamino]-piperidine] | 0.88 nM | 4.3 nM | 1.5 nM | 7600 nM |  | 
7 | CC(C)CCC(=O)N[C@@H]1CCN(S(=O)(=O)c2ccc(-c3ccc(O)cc3)cc2)[C@@H](C(=O)NO)C1 [Compound 57, (2R, 4R)-2-Hydroxyaminocarbonyl-1-[4-(4-hydroxyphenyl)benzenesulfonyl]-4-(4-methylpentanoylamino) piperidine] | 11 nM | 100 nM | 1.8 nM | 460 nM |  | 
8 | O=C(N[C@@H]1CCN(S(=O)(=O)c2ccc(-c3ccc(Cl)cc3)cc2)[C@@H](C(=O)O)C1)c1cccc[n+]1[O-] [Compound 89, (2R, 4R)-2-Carboxy-1-[4-(4-chlorophenyl)benzenesulfonyl]-4-(pyridyl-N-oxide-2-yl) carbonylamino-piperidine] | 200 nM | 7000 nM | 28 nM |  | 14% | 
9 | CC(=O)N[C@@H]1CCN(S(=O)(=O)c2ccc(-c3ccc(O)cc3)cc2)[C@@H](C(=O)NO)C1 [Compound 65, (2R, 4R)-4-Acetylamino-2-hydroxyaminocarbonyl-1-[4-(4-hydroxyphenyl)benzenesulfonyl]-piperidine] | 51 nM | 23 nM | 4.8 nM | 870 nM |  | 
10 | CC(C)CCC(=O)N[C@@H]1CCN(S(=O)(=O)c2cccc(-c3ccc(O)cc3)c2)[C@@H](C(=O)NO)C1 [Compound 53, (2R, 4R)-2-Hydroxyaminocarbonyl-1-[3-(4-hydroxyphenyl)benzenesulfonyl]-4-(4-methylpentanoylamino)-piperidine] | 6900 nM | 2000 nM | 960 nM |  | 53% | 
11 | COc1ccc(-c2cccc(S(=O)(=O)N3CC[C@@H](NC(=O)CCC(C)C)C[C@@H]3C(=O)NO)c2)cc1 [Compound 52, (2R, 4R)-2-Hydroxyaminocarbonyl-1-[3-(4-methoxyphenyl)benzenesulfonyl]-4-(4-methylpentanoylamino)-piperidine] | 420 nM | 79 nM | 210 nM |  | 48.9% | 
12 | COc1ccc(C(=O)N[C@@H]2CCN(S(=O)(=O)c3ccc(-c4ccc(OC)cc4)cc3)[C@@H](C(=O)NO)C2)cc1 [Compound 48, (2R, 4R)-2-Hydroxyaminocarbonyl-4-(4-methoxybenzoylamino)-1-[4-(4-methoxyphenyl)benzenesulfonyl]-piperidine] | 0.4 nM | 310 nM | 0.55 nM |  | 35.5% | 
13 | CC(C)CCC(=O)N[C@@H]1CCN(S(=O)(=O)c2cccs2)[C@@H](C(=O)NO)C1 [Compound 51, (2R, 4R)-2-Hydroxyaminocarbonyl-4-(4-methylpentanoylamino)-1-(2-thiophenesulfonyl)-piperidine] | 75 nM | 31 nM | 80 nM | 6.5 nM |  | 
14 | CC(C)CCCN[C@@H]1CCN(S(=O)(=O)c2cccs2)[C@@H](C(=O)NO)C1 [Compound 70, (2R, 4R)-2-Hydroxyaminocarbonyl-4-(4-methylpentylamino)-1-(2-thiophenesulfonyl)-piperidine] | 83 nM | 380 nM | 740 nM | 5600 nM |  | 

Reference: US20010056184A1, “Pipecolinic acid derivatives, method of manufacturing the same and therapeutic agents containing these compounds” (priority 2000, published 2001)
